The record followed here is US20140228315A1, “BLOCKADE OF EOSINOPHIL PRODUCTION BY TOLL-LIKE RECEPTORS” (CHILDREN'S HOSPITAL MEDICAL CENTER, priority 2011, published 2014).

To fix the notation:
B1: IL-10: cytokine added at 2 ng/ml to IL-5-containing medium (protein, UniProt P22301 19-178, looked up)
Interleukin-10: SPGQGTQSENSCTHFPGNLPNMLRDLRDAFSRVKTFFQMKDQLDNLLLKESLLEDFKGYLGCQALSEMIQFYLEEVMPQAENQDPDIKAHVNSLGENLKTLRLRLRRCHRFLPCENKSKAVEQVKNAFNKLQEKGIYKAMSEFDIFINYIEAYMTMKIRN

One test has as its system developing eosinophils (eosinophil progenitors, EoPs) from LDBM cells. Kind of test: Murine eosinophil liquid culture (LDBM cells, IL-5): eosinophil yield after TLR ligand or cytokine exposure. Type of test: cell-based, mouse. To be noted: cytokines added with IL-5 from Day 8 for the final 6 days of culture. The method, then: The femurs and tibiae of mice were crushed in a sterile mortar and pestle containing 1×PBS with 2% FBS, and cells were collected by filtration through a 70-μm strainer. Red blood cells were lysed using RBC lysis buffer (Sigma, St. Louis, Mo.), and the remaining cells were subjected to centrifugation at 1700 rpm for 30 minutes on a Histopaque 1083 (Sigma) gradient. LDBM cells were aspirated from the interface, washed twice with 1× PBS and cultured at 0.8-1×10^6 cells per ml in 6-well plates or 24-well plates containing Complete Medium composed of Iscove's Modified Dulbecco's Medium (IMDM) with Glutamax (Gibco, Carlsbad, Calif.), 10% characterized FBS (HyClone, Hudson, N.H.), 2 mM L-glutamine (Gibco), 50 μM 2-ME (Sigma), and penicillin and streptomycin (Gibco) supplemented with 100 ng/mL stem cell factor (SCF; Peprotech, Rocky Hill, N.J.) and 100 ng/mL FLT3-ligand (FLT3L; Peprotech). On day 4, the medium in each non-centrifuged plate was replaced with fresh Complete Medium containing 10 ng/mL murine IL-5 (Peprotech). Medium with IL-5 was changed every 2 days thereafter. On Day 8, some cultures were treated with LPS from E. coli serotype O55:B5 (Sigma), ultrapure LPS from S. minnesota (InvivoGen, San Diego, Calif.), monophosphoryl lipid A from S. minnesota R595LPS (InvivoGen), synthetic lipid A from E. coli (InvivoGen), Pam2CSK4 (InvivoGen), Pam3CSK4 (InvivoGen), imiquimod (InvivoGen), CL264 (InvivoGen), or poly(I:C) (InvivoGen) at indicated doses in the presence of IL-5.
After TLR ligand exposure for 18-24 hours, the medium was changed to Complete Medium with IL-5 at 10 ng/ml for the remaining culture period. For neutralization experiments, monoclonal anti-mouse IFN-γ (clone 37895; R&D Systems, Minneapolis, Minn.) or rat IgG2a isotype antibody was added at 0.3 μg/ml to media during LPS exposure and to Complete Medium with IL-5 thereafter. For some experiments, cytokines (IL-6 at 0.1 ng/ml, IL-10 at 2 ng/ml, IFN-γ at 0.5 ng/ml, TNF-α at 0.5 ng/ml, or the combination of all four) were added on Day 8 to IL-5-containing Complete Medium. Cells were cultured in the presence of these individual cytokines or the cytokine combination for the remainder of the culture period.
Whole bone marrow or LDBM cells were washed twice in 1×PBS containing 1% FBS and 1 mM EDTA at a concentration of 4×10^6 cells/mL and blocked with 0.5 μg rat anti-mouse CD16/CD32 (BD Bioscience, San Diego, Calif.) for 5 minutes at 4° C. Cells were incubated with fluorescent-labeled antibodies for 30 minutes at 4° C. and then washed twice and resuspended in flow cytometry buffer. Antibodies used include rat anti-mouse CD34-FITC (BD Bioscience), rat anti-mouse TLR4-PE (Imgenex, San Diego, Calif.), rat anti-mouse Siglec-F-PE (BD Bioscience), and rat anti-mouse CCR3-FITC (R&D Systems). All flow cytometric data were acquired using a FACS Calibur or FACS Canto flow cytometer (BD Bioscience).
FIG. 3A. A schematic of LPS exposure for eosinophil progenitors is depicted. LDBM cells were stimulated with SCF and FLT3L for 4 days and subsequently cultured with IL-5 for 4 days to initiate eosinophil differentiation. On Day 8, cultured cells were stimulated with LPS and IL-5 for 18-24 hours, after which the medium was changed, and the cells were cultured for another 6 days with IL-5 alone.
With “IFN-γ: cytokine added at 0.5 ng/ml to IL-5-containing medium”, the “number of mature eosinophils produced (eosinophil yield)” value (from here on “number of mature eosinophils produced”) is “no significant effect”. In the case of “IL-6: cytokine added at 0.1 ng/ml to IL-5-containing medium”, the “number of mature eosinophils produced” value is reported as “no significant effect”. Take TNF-α: the “number of mature eosinophils produced” value was “no significant effect”. In the case of B1, the “number of mature eosinophils produced” value was “no significant effect”.

Still in this test, the particulars now being: wild-type cultures; TLR ligand exposure 18-24 hours on Day 8 in presence of IL-5, then IL-5 alone; yield at day 11-15.
As to Pam3CSK4, the “eosinophil yield (eosinophil production)” value is “dose-dependent reduction in eosinophil yield”.

For poly(I:C), the “eosinophil yield (eosinophil production)” value is reported as “no effect on eosinophil production”.

Take monophosphoryl lipid A [MPLA]: the “eosinophil yield (eosinophil production)” value is “dose-dependent suppression of eosinophil production”.

Regarding “synthetic monophosphoryl lipid A [sMPLA]”, the “eosinophil yield (eosinophil production)” value is given as “significant suppression of eosinophil production at higher doses”. Same read-out and setting: the entry for `CCCCNc1nc(N)c2[nH]c(=O)n(Cc3ccc(C(=O)NCC(=O)O)cc3)c2n1` [CL264] is “significant suppression of eosinophil yield”; for `CC(C)Cn1cnc2c(N)nc3ccccc3c21` [imiquimod] it is “significant suppression of eosinophil yield”; for Pam2CSK4 it is “dose-dependent reduction in eosinophil yield”.
